Results taken from patent publication US9695218B2, “Pharmaceutical composition for preventing or treating ocular surface disease” (INJE UNIVERSITY INDUSTRY-ACADEMIC COOPERATION FOUNDATION, priority 2014, dated 2017).

Assays:
Format in all cases: in vivo, New Zealand white rabbits
[1] = system: cornea of alkaline burn rabbit; assay: Clinical evaluation of corneal angiogenesis and opacification in corneal alkaline burn rabbit model; settings: 10 mg/mL instilled 4 times per day for 10 days, day 17 after alkaline burn; for corneal opacity score (graded 0 through 3): mean±SD, n=5, saline control 3.0±0.0
Method: (§1) 15 New Zealand white rabbits weighing between 2.0 kg and 2.5 kg were purchased from Samtako (Osan, Korea), and then, were subjected to systemic anesthesia by intramuscular injection of a mixture of ketamine hydrochloride (30 mg/kg body weight, Huons, Jecheon, Korea) and xylazine hydrochloride (2.5 mg/kg, Bayer Korea Ltd., Seoul, Korea) and to topical anesthesia by Alcaine propracaine eye drops (Alcon Inc., Seoul, Korea).
(§2) Afterwards, alkaline burn model was developed by applying an 8 mm filter paper soaked in 1 N NaOH to the right central corneas of rabbits for 1 minute. 7 days later, an increase in corneal angiogenesis and corneal opacity upon alkaline burns was confirmed.
(§3) The rabbits were randomly divided into three groups: the alkaline burn group (n=5), the peptide I group (n=5), and the peptide II group (n=5). The alkaline burn group was treated with saline instilled thereto 4 times per day, the peptide I group was treated with 10 mg/mL of peptide SEQ ID NO: 1 instilled thereto 4 times per day, and the peptide II was treated with 10 mg/mL of peptide SEQ ID NO: 2 instilled thereto 4 times per day. The left eyes were used as controls.
7 days after the corneal alkaline burns, clinical evaluation of corneal angiogenesis and opacification was performed.
First, the extent of corneal angiogenesis was scored from 0 through 3, where 0 denotes no angiogenesis, 1 denotes angiogenesis confined to the corneal periphery, 2 denotes angiogenesis extending up to the pupil margin, and 3 denotes angiogenesis extending beyond the pupil margin into the central cornea. In eyes where significant opacification or extensive symblepharon formation caused difficulties in evaluating corneal angiogenesis, a score of 3 was assigned.
In addition, the severity of corneal opacification was graded from 0 through 3, where 0 denotes clear cornea with iris details clearly visualized, 1 denotes partial obscuration of the iris details, 2 denotes iris details poorly seen with the pupil margin just visible, and 3 denotes complete obscuration of iris and pupil details. […]

[2] = system: cornea of alkaline burn rabbit; assay: Corneal thickness of H&E-stained tissue sections in corneal alkaline burn rabbit model; settings: 10th day after treatment, 10 mg/mL instilled 4 times per day, normal 628.0±13.2, alkali burn control 1078.0±30.8
Method: as §1, §2
as §3, with “controls. […]” for “controls.”
The corneal thickness of the tissue sections was measured using photographs obtained by the H&E staining and taken with a virtual microscope (NanoZoomer 2.0 RS, Hamamatsu, Japan) according to the NDP view program (Hamamatsu, USA).

[3] = system: fibroblast in the stroma of alkaline burn rabbit cornea; assay: Masson's trichrome staining for fibrotic changes of the cornea following alkali burns; settings: 10th day after treatment, 10 mg/mL instilled 4 times per day
Method: as §1, §2, §3
(§4) On the 10th day after the treatment as described above, the H&E staining, the Masson's trichrome staining, and immunohistochemistry were performed to observe the fibrosis, angiogenesis, inflammation, and structural changes of the cornea. […]

[4] = system: cornea of alkaline burn rabbit; assay: H&E staining for histological changes in cornea following alkaline burn; settings: 10th day after treatment, 10 mg/mL instilled 4 times per day
Method: as §1, §2, §3, §4

CD31 = assay: Immunohistochemistry of angiogenic marker CD31 in alkaline burn rabbit cornea; settings: 10 mg/mL instilled 4 times per day, 10th day, compared with the peptide I group
Method: (§5) Ocular tissue sections of an alkaline burn animal model were cut to a thickness of 6 μm, and then, the tissue sections were used for immunohistochemical analysis.
(§6) First, the tissue sections were fixed in 3.5% paraformaldehyde, permeabilized with 0.1% Triton X-100, blocked with 2% bovine serum albumin (BSA; all from Sigma, St. Louis, Mo.), and incubated overnight with the following primary antibodies; anti-CD31 (1:1,000; Abcam Inc., Cambridge, Mass.), anti-MMP-9, anti-ICMA-1, anti-VCAM-1 (1:1,000; from Bioss Antibodies, Woburn, Mass.), anti-TNFα, anti-NF-κB (1:1,000; all from biorbyt LLC, San Franciso, Calif.) anti-macrophage/monocyte (Abnova Crop., Taipei, Taiwan), and anti-VEGF-A (Abbiotec, San Diego, Calif.).
(§7) Next, the tissue sections were incubated with a secondary antibody for 45 minutes. The immunological reactions therein were visualized with diaminobenzidine (DAB) chromogen, and the tissue sections were counterstained with Mayer's hematoxylin (Sigma) for 30 seconds at room temperature.
(§8) The sections were photographed with a virtual microscope (virtual microscope; NanoZoomer 2.0 RS, Hamamatsu, Japan).
(§9) The rabbits were randomly divided into three groups: the alkaline burn group (n=5), the peptide I group (n=5), and the peptide II group (n=5). […]

VEGF = assay: Immunohistochemistry of angiogenic marker VEGF in alkaline burn rabbit cornea; settings: 10 mg/mL instilled 4 times per day, 10th day, compared with the peptide I group
Method: as §5, §6, §7, §8, §9

macrophages = assay: Immunohistochemistry of macrophages in alkaline burn rabbit cornea; settings: 10 mg/mL instilled 4 times per day, 10th day
Method: as §5, §6, §7, §8, §9

TNFα = assay: Immunohistochemistry of inflammatory marker TNFα in alkaline burn rabbit cornea; settings: 10 mg/mL instilled 4 times per day, 10th day
Method: as §5, §6, §7, §8, §9

ICAM-1 = assay: Immunohistochemistry of inflammatory marker ICAM-1 in alkaline burn rabbit cornea; settings: 10 mg/mL instilled 4 times per day, 10th day
Method: as §5, §6, §7, §8, §9

VCAM-1 = assay: Immunohistochemistry of inflammatory marker VCAM-1 in alkaline burn rabbit cornea; settings: 10 mg/mL instilled 4 times per day, 10th day
Method: as §5, §6, §7, §8, §9

MMP-9 = assay: Immunohistochemistry of inflammatory marker MMP-9 in alkaline burn rabbit cornea; settings: 10 mg/mL instilled 4 times per day, 10th day, compared to the peptide I group
Method: as §5, §6, §7, §8, §9

NF-κB = assay: Immunohistochemistry of NF-κB in alkaline burn rabbit cornea; settings: 10 mg/mL instilled 4 times per day, 10th day, compared to peptide I treatment
Method: as §5, §6, §7, §8, §9

| Substance | corneal opacity score (graded 0 through 3) [1] | corneal thickness [2] [μm] | fibrotic changes / population of fibroblast in stroma (Masson's trichrome) [3] | histological alterations (epithelial proliferation, infiltration of inflammatory cells, stromal edema, angiogenesis; H&E) [4] | corneal angiogenesis (scored 0 through 3) ([1]; compared to the control group (2.7±0.5)) | expression of CD31 in epithelium, subepithelium and stroma (CD31) | expression of VEGF in epithelium, subepithelium and stroma (VEGF) | expression of macrophages (macrophages) | expression of TNFα (TNFα) | expression of ICAM-1 (ICAM-1) | expression of VCAM-1 (VCAM-1) | expression of MMP-9 (MMP-9) | expression of NF-κB in stroma (NF-κB) |
| --- | --- | --- | --- | --- | --- | --- | --- | --- | --- | --- | --- | --- | --- |
| GDRGD (Collagen type I, alpha 1) [peptide I, collagen type I α1 based peptide from CDEM, synthesized; used as comparative group] | 2.1±0.3 | 1066.0±31.7 | little effect on the fibrotic changes | little effect | – | – | – | – | – | – | – | – | – |
| GQDGLAGPK (Collagen type II, alpha 1) [peptide II, collagen type II α1 based peptide isolated from chondrocyte-derived extracellular matrix (CDEM), synthesized] | 1.9±0.6 | 876.0±37.0 | significantly suppressed the population of fibroblast | improved | decreased angiogenesis | significantly decreased | significantly decreased | effectively suppressed | decreased | decreased | decreased | suppressed | decreased |
